US20040043380A1, “T cell line and use thereof” (priority 2000, published 2004)
Read-outs that look alike come from different tables or passages of the source.

System: HIV-1 BaL strain
Experiment: Anti-HIV-1 activity: alkaline phosphatase reporter in MOLT-4/CCR5/LTR-SEAP cells infected with HIV-1 BaL strain
Type: cell-based
Details: for EC50: read-out: EC50 (activity of inhibiting viral growth by 50%); for EC90: read-out: EC90 (activity of inhibiting viral growth by 90%)
Procedure: The alkaline phosphatase activity was measured by using Great EscAPe SEAP Detection Kit manufactured by Clontech. Fifty microliters of a diluent was added to 15 μl of the culture supernatant and incubated at 65° C. for 30 minutes. The reaction solution was cooled to room temperature, and then 50 μl of the reaction solution was transferred to a white plate, and 50 μl of an assay buffer was added thereto and incubated at room temperature for 5 minutes. Fifty microliters of a luminescence substrate was added thereto, incubated at room temperature for 10 minutes, and measured for chemiluminescence by a luminometer.
A mixture of 2×10^4of MOLT-4/CCR5/LTR-SEAP cells, 1000 CCID50 (cell culture infective dose 50%) of the virus and a test compound (Table 1) at various concentrations was cultured at 37° C. in 5% CO2 gas for 5 days. A quarter of the culture was subcultured for 5 days. On the tenth day after the infection, the culture supernatant was recovered, and the alkaline phosphatase activity was measured. The anti-HIV-1 activity (the inhibition rate) of a test compound was calculated from the following formula:
Inhibition rate (%)=(1−(chemiluminescence^1/chemiluminescence^2))×100
Chemiluminescence^1=chemiluminescence with addition of a test compound (ii)−chemiluminescence without viral infection (iii).
Chemiluminescence^2=chemiluminescence without addition of a test compound (i)−chemiluminescence without viral infection (iii).

[1] = MOLT-4/CCR5/LTR-SEAP cells, 1000 CCID50 HIV-1 BaL strain, alkaline phosphatase activity in culture supernatant on tenth day after infection
[2] = Human immunodeficiency virus 1, BAL

EC50 [1]	EC90 [1]	Structure (SMILES)	EC90 [2]	EC50 (Human immunodeficiency virus 1, MOLT-4/CCR5/LTR-SEAP cells, 1000 CCID50 HIV-1 BaL strain, alkaline phosphatase activity in culture supernatant on tenth day after infection)	EC50 [2]
21 nM	680 nM	Cc1ccc(-c2ccc3c(c2)C=C(C(=O)Nc2ccc(C[N+](C)(C)C4CCOCC4)cc2)CCC3)cc1 [Compound 4, N,N-dimethyl-N-(4-(((2-(4-methylphenyl)-6,7-dihydro-5H-benzocyclohepten-8-yl)carbonyl)-N-(4-tetrahydropyranyl)ammonium chloride]			
		Cc1ccnc2c1NC(=O)c1cccnc1N2C1CC1 [Compound 2, 11-cyclopropyl-5,11-dihydro-4-methyl-6H-dipyrido[3,2-b:2′,3′-e] [1,4]diazepin-6-one]	350 nM	40 nM	
		Cc1cn([C@H]2C=C[C@@H](CO)O2)c(=O)[nH]c1=O [Compound 1, 2′,3′-didehydro-3′-deoxythymidine]	260 nM		16 nM
		Cc1c(O)cccc1C(=O)N[C@@H](CSc1ccccc1)[C@H](O)CN1C[C@H]2CCCC[C@H]2C[C@H]1C(=O)NC(C)(C)C [Compound 3, (-)-(3S,4aS,8aS)-N-tert-butyl-2-[(2R,3R)-2-hydroxy-3-(3-hydroxy-2-methylbenzoylamino)-4-(phenylthio)butyl]decahydroisoquinoline-3-carboxamide monomethanesulfonate]	170 nM		0.67 nM
